Assay results reported in patent EP0728012B1, “NOVEL GnRH ANALOGUES WITH ANTITUMOUR EFFECTS AND PHARMACEUTICAL COMPOSITIONS THEREOF” (Lovas, Sandor, priority 1994, dated 1996).

Legend:
[1] = tested on: MDA-MB-231; settings: MDA-MB-231; 30 µM active substance; conjugate, treated once; listed as 11. P-GFLG-GnRH-III
Experimental: (§1) The procedure of treatment was as follows. After trypsinization the cells, 400,000 cells of MCF-7, MDA-MB-231 human mammary carcinoma, PC3 human prostate carcinoma or Ishikawa human endometrium tumour each were passed into Petri dishes of 10 cm in diameter. Starting from the day following transfer, the cells were treated with the substances to be tested in solution prepared with the nutrient medium during the exponential growth phase. […]

[2] = tested on: MCF-7; settings: MCF-7; 30 µM active substance; conjugate, treated once; cell count on 7th day; listed as 11. P-GFLG-GnRH-III
Experimental: as §1

[3] = tested on: MDA-MB-231 xenograft; assay: In vivo antitumour effect on MDA-MB-231 xenograft in immunosuppressed mice; parameters: species or system CBA/Ca mice
Experimental: The immunosuppression of mice was carried out by using the method of Steel et al. [Br. J. Cancer, 37, 224-230 (1978)]. Immunosuppression and xeno-transplantation
CBA-Ca female mice of about 6 weeks old were thymectomized and then, after one week, they were irradiated with 60Co (whole body irradiation; the lethal dose is 9.5 Gray). Within 24 hours 3 to 5 x 10^5 myelocytes were injected into the animals. Beneath the skin of the immunosuppressed mice 2 x 10^7 tumour cells or, in the case of later passages, […] were implanted. […] The treatment with steroid hormone was stopped by at least one week before beginning the investigation.
Recent investigations have begun on 28 animals bearing MCF-7 xenograft and on 28 animals bearing MDA-MB-231 xenograft. On animals bearing MCF-7 tumour the treatment was commenced in the 5th week following xeno-transplantation; the tumour volume was 205 to 225 mm^3. On animals bearing MDA-MB-231 tumour, the treatment was started in the 4th week after xeno-transplantation with a tumour volume of 140 to 150 mm^3. […] The control groups were daily treated with physiological saline s.c. (Each treated group consisting of 7 animals).
A more recent study was started on 28 animals bearing MDA-MB-231 xenograft. The treatment was begun in the 4th or 5th week following xenotransplantation. The tumour volume was 0.165 to 0.194 cm^3. […] (For treatment of the control group, see the preceding Examples). Each group consisted of 7 animals.

[4] = tested on: human tumour cell lines; assay: Inhibition of colony formation (Example 18), cell line not given; type: cell-based; settings: on any cell line (Table 1)
Experimental: (§2) The investigation gives a precise information about the cell-damaging effect of the tested substance. In the case of cytostatics the cell-damaging effect is not cell-specific. […] One part of the arrested cells again go into the cycle, the other part may perish (apoptosis). […] The investigations were carried out on MCF-7 and MDA-MB-231 human mammary carcinoma cell lines, PC3 human prostate 15 carcinoma cell line and Ishikawa human endometrium carcinoma cell line. Three hundred cells were set into Petri dishes of 3.5 cm in diameter each. The treatment was carried out once, 24 hours following the explantation, then the colonies formed were counted after 9 to 12 days.

[5] = Ovulation / cycle of female rats during prolonged treatment; type: in vivo; settings: high dose of the coupled GnRH-III; three cycles observed
Description: In 1993, researchers isolated and synthesized the Lamprey-III-GnRH decapeptide from lamprey (Petromyzon marinus) (p[…]NH2). This Lamprey-III-GnRH (herein below GnRH-III) exerts a significant tumour growth-inhibiting effect on human mammary tumour cell lines.

[6] = tested on: PC3 human prostate carcinoma cell line; assay: Inhibition of colony formation (dose-survival relation, Example 18); type: cell-based; settings: 50 µM
Experimental: as §2, with “In” for “The investigation gives a precise information about the cell-damaging effect of the tested substance. In”

[7] = tested on: Ishikawa human endometrium carcinoma cell line; assay: as above; type: cell-based; settings: 50 µM
Experimental: as §2, with “In” for “The investigation gives a precise information about the cell-damaging effect of the tested substance. In”

[8] = tested on: MCF-7 human mammary carcinoma cell line; assay: as above; type: cell-based; settings: 50 µM (active substance), treated once
Experimental: as §2, with “In” for “The investigation gives a precise information about the cell-damaging effect of the tested substance. In”

[9] = MDA-MB-231 xenograft, after 9 week treatment, 100 µg daily s.c.
[10] = Table V, treatment week 2, 1x100 µg daily s.c.
[11] = Table V, treatment week 4, 1x100 µg daily s.c.
[12] = Table V, treatment week 6, 1x100 µg daily s.c.
[13] = week 0, daily s.c., 1 x 100 µg series
[14] = week 1, daily s.c., 1 x 100 µg series
[15] = week 2, daily s.c., 1 x 100 µg series
[16] = week 3, daily s.c., 1 x 100 µg series
[17] = week 4, daily s.c., 1 x 100 µg series
[18] = week 5, daily s.c., 1 x 100 µg series
[19] = week 6, daily s.c., 1 x 100 µg series
[20] = week 7, daily s.c., 1 x 100 µg series

Question: For “{Lys[n-poly(N-vinylpyrrolidone-co-maleic acid)-Gly-Phe-Leu-Gly-]}^8,-GnRH-III [P-GFLG-GnRH-III]”, which “% Inhibition of cell division (proliferation)” value [1] is on record?
Answer: 11%

Question: What about the “% Inhibition of cell division (proliferation)” value [2] of the same substance?
Answer: 10%

Question: And the “animals that became tumour-free” value ([3]; MDA-MB-231 xenograft, 100 µg daily s.c., 6th week of treatment)?
Answer: 2 animals from 7

Question: What about the “Volume (cm^3) of tumours” value [3, 9] of the same substance?
Answer: 0.613 ± 0.307 cm^3

Question: And the “Weight (g) of tumours” value [3, 9]?
Answer: 0.45 ± 0.4 g

Question: And the Inhibition % [3, 10]?
Answer: 20%

Question: What about the “Tumour volume as control (%)” value [3, 10] of the same substance?
Answer: 80%

Question: And the Inhibition % [3, 11]?
Answer: 36%

Question: And the “Tumour volume as control (%)” value [3, 11]?
Answer: 64%

Question: What about the Inhibition % [3, 12] of the same substance?
Answer: 67%

Question: What about the “Tumour volume as control (%)” value [3, 12] of the same substance?
Answer: 33%

Question: And the “Tumour volume (cm^3)” value [3, 13]?
Answer: 0.17 cm^3

Question: And the “Tumour volume as control (%)” value [3, 13]?
Answer: 104%

Question: What about the “Tumour volume (cm^3)” value [3, 14] of the same substance?
Answer: 0.25 cm^3

Question: What about the “Tumour volume as control (%)” value [3, 14] of the same substance?
Answer: 107%

Question: What about the “Tumour volume (cm^3)” value [3, 15] of the same substance?
Answer: 0.33 cm^3

Question: What about the “Tumour volume as control (%)” value [3, 15] of the same substance?
Answer: 80%

Question: What about the “Tumour volume (cm^3)” value [3, 16] of the same substance?
Answer: 0.40 cm^3

Question: And the “Tumour volume as control (%)” value [3, 16]?
Answer: 72%

Question: And the “Tumour volume (cm^3)” value [3, 17]?
Answer: 0.41 cm^3

Question: What about the “Tumour volume as control (%)” value [3, 17] of the same substance?
Answer: 64%

Question: And the “Tumour volume (cm^3)” value [3, 18]?
Answer: 0.49 cm^3

Question: And the “Tumour volume as control (%)” value [3, 18]?
Answer: 53%

Question: What about the “Tumour volume (cm^3)” value [3, 19] of the same substance?
Answer: 0.40 cm^3

Question: What about the “Tumour volume as control (%)” value [3, 19] of the same substance?
Answer: 32%

Question: And the “Tumour volume (cm^3)” value [3, 20]?
Answer: 0.31 cm^3

Question: And the “Tumour volume as control (%)” value [3, 20]?
Answer: 24%

Question: What about the “inhibition of colony formation” value [4] of the same substance?
Answer: ≤ 16%

Question: And the “cycle of female rats (castration effect)” value [5]?
Answer: not influenced

Question: What about the “% Inhibition of colony formation” value [6] of the same substance?
Answer: 16%

Question: And the “% Inhibition of colony formation” value [7]?
Answer: 15%

Question: What about the “% Inhibition of colony formation” value [8] of the same substance?
Answer: 9%
